Measurements: patent US11918553B2, “Anti-oncogenic phytochemicals comprising substituted henicosanoic acid and henicosenoic acid” (Ostentus Therapeutics, Inc., priority 2022, dated 2024)

Assays:
Experiment in all cases: Apoptosis flow cytometry assay of HPLC fractions and synthesized compounds
MV-4-11 cells = type: cell-based, human
Method: Apoptosis flow cytometry assays were performed essentially as described in Example 3. In one series of experiments, cultures MV-4-11 cells were grown to an appropriate density and approximately 20,000 cells/100 μL were seeded into wells of 96-well cell culture microplate. For each fraction, either 0.5 μL/mL of a fraction or 1 μL/mL of a fraction was then added to transferred cells for each cell line and incubated for 24 hours at 37° C. in 5% CO2 incubator. […] Cells were then assessed for apoptosis by an apoptosis flow cytometry assay employing with a fluorochrome-conjugated Annexin V and/or the fluorescent nucleic acid dye 4,6-diamidino-2-phenylindole (DAPI) (APC Annexin V, BD Bioscience, CA) following protocols provided by the manufacture. […] Aliquots were then incubated in the dark for 15 minutes with either 1) an Annexin-V-APC conjugate and DAPI, 1) an Annexin-V-APC conjugate; or 3) DAPI. An unstained aliquot was also set up as a negative control to define the basal level of apoptotic and dead cells. The percentage of cells that have been induced to undergo apoptosis is then determined by subtracting the percentage of apoptotic cells in the unstained aliquot from percentage of apoptotic cells in the stained aliquot. After staining, cells were washed in ice-cold PBS and resuspended in 300 μL of the Annexin V buffered solution, and analysis by flow cytometry using an LSR II flow cytometer (BD Bioscience, CA). […] Mean cell numbers between the OST-01 treated and control group was statistically analyzed by using unpaired, two-tailed Student's t test, with values from at least two independent experiments with triplicate determination. […]
Raw data obtained from these analyses were searched against a natural product databases, a flavonoid database, and other chemspider databases centered to plant natural products for putative identification. IN addition, based on the most abundant precursor ions detected in DI-MS, compounds were manually searched to assign putative identify of the abundant compounds. […]

HL-60 cells = type: cell-based, human; settings: HL-60, highest amount tested (50 μM)
THP-1 cells = type: cell-based; settings: THP-1, highest amount tested (200 μM), relative to ethanol or DMSO negative controls (FIG. 26B)

Row | Structure (SMILES) | increase in DAPI positive cells (MV-4-11 cells; MV-4-11, up to 30 μM, relative to ethanol negative control, decline at higher concentrations (FIG. 28A)) [fold] | increase in DAPI positive cells (HL-60 cells; relative to ethanol negative control (FIG. 28B)) | increase in Annexin V positive cells (HL-60 cells; relative to ethanol or DMSO negative controls (FIG. 27B)) | increase in Annexin V positive cells (MV-4-11 cells; MV-4-11, highest amount tested (50 μM), relative to ethanol negative control (FIG. 27A)) | increase in Annexin V positive cells (MV-4-11 cells; MV-4-11, highest amount tested (200 μM), relative to ethanol or DMSO negative controls (FIG. 26A)) [%] | increase in Annexin V positive cells (THP-1 cells) [%]
1 | O=C(O)CCCCCCCCCCCCCCCCCCCCO | ≥ 8 | over 4 fold | over 1.5 fold | – | – | –
2 | O=C(O)/C=C/CCCCCCCCCCCCCCCCCCO [(2E)-21-Hydroxy-2-henicosenoic acid] | – | – | – | over 2 fold | ≥ 55 | ≥ 50
